Results on one compound are retold here after patent publication US20100092402A1, “TREATMENT OF RESPIRATORY DISEASE” (Mucokinetica Ltd., priority 2007, published 2010).

Test [1] concerns cystic fibrosis transmembrane regulator (CFTR). The test is described as follows: Short circuit current recording of HBE cells in Ussing chambers (forskolin ΔIsc). The class given is cell-based, human. Particulars: for effect on forskolin ΔIsc compared to control: 90 min pre-treatment. As to the method:
Differentiated HBE cells grown to confluence at an air-liquid interface for 15 to 29 days were used to study substances for ability to achieve long duration down regulation of the epithelial amiloride-sensitive sodium channel (ENaC).
Step 1: Treatment with substance. For each group of cells treated with a substance, 30 μl of 100 times final concentration of substance was added to the 3 ml basolateral culture medium, mixed and 150 μl of the resultant basolateral fluid was transferred to the apical surface for 5 min. For non-treatment control groups of basolateral fluid with no added substance was transferred to the apical surface. After 5 min. equilibration the excess apical fluid was then transferred back to the basolateral side of the culture well.
Step 2: Variable period of incubation with the substance. Dependent on the individual experiment the cells were returned to the 37° C. incubator for periods of 0 min. to 120 min.
Step 3: Period of substance washout with fresh culture medium. For experiments to study the duration of a substance response the HBE cells on Snapwell inserts were washed with fresh culture medium (no added substance) at 37° C. and placed in fresh 6-well plates containing 3 ml fresh culture medium (no added substance) on the basolateral side. […]
Step 5: Short circuit current (Isc) measurement. […] Silver/silver chloride electrodes (Costar Ltd., UK) were used to monitor Isc, which was recorded continuously throughout each experiment using AcqKnowledge III for MP100WSW data acquisition software (Biopac, Linton Instruments, UK). Transepithelial resistance (RT) was determined every minute by delivering a 5 mV pulse for 3 seconds and recording the change in ISS, over the 3 second period (ΔIsc). RT was calculated using the Ohm's law relationship RT=[V(5 mV)/ΔIsc].
At 37 min. […] The magnitude of the CFTR Isc response to forskolin was determined for each culture by measuring the difference between Isc immediately prior to addition of forskolin and at plateau at approximately 6 min. following addition of the agent (Forskolin ΔIsc)

The test system of the next test is prostasin. To be noted: treatment for 24 h; cited from earlier work.

As for `N=C(N)c1ccc2cc(OC(=O)c3ccc(N=C(N)N)cc3)ccc2c1` [6-amidino-2-napthyl 4-guanidinobenzoate], the “effect on forskolin ΔIsc compared to control” value in test [1] (1 μM) is “no significant effect”; in test [1] (dose range 30 nM to 3 μM), “without effect”. Further, the “forskolin response, treatment vs control” value in test [1] (1 μM, pre-treatment time range 5 min to 60 min) is reported as “No significant difference”. Further, the “prostasin secretion into culture medium” value in the test on prostasin is “reduced prostasin secretion”.
